One may read the Papp B→A as how fast a substance crosses the layer from the basolateral side. In general, IC50 refers to the concentration that gives 50% inhibition. Read a low IC50 as higher potency.

SMILES strings stand for the structures. Where a SMILES comes first, the peptide text is derived from it. [ ]: non-standard residue; d: D form. The star is where a group is joined. Dolaproine = CO[C@@H]([C@@H]1CCCN1)[C@@H](C)C(=O)O; Dil = CC[C@H](C)[C@H](NC)[C@@H](CC(=O)O)OC; X1 = C[C@@H](N*)[C@@H](O)c1ccccc1; NMeV = CN[C@H](C(=O)O)C(C)C

The results in this text go back to US9029406B2 (Seattle Genetics, Inc, priority 2011, dated 2015).

Series [1] can be described thus: Cell permeability, flux assay using Caco-2 cells. The following applies: human; Caco-2 flux assay, basal to apical, 2 h incubation. Type of series: in vitro ADME. The method, then: (§1) B-4. Determination of Cell Permeability:
(§2) The cell permeability of a substance can be analyzed by in vitro testing in a flux assay using Caco-2 cells [M. D. Troutman and D. R. Thakker, Pharm. Res. 20 (8), 1210-1224 (2003)]. To do so, the cells were cultured for 15-16 days on 24-hole filter plates. To determine the permeation, the respective test substance was applied to the cells either apically (A) or basally (B) in a HEPES buffer and incubated for 2 h. After 0 h and after 2 h, samples were taken from the cis- and trans-compartments. The samples were separated by HPLC (Agilent 1200, Böblingen, Germany) using reverse phase columns. The HPLC system was coupled via a turbo ion spray interface to an API 4000 triple quadrupole mass spectrometer (Applied Biosystems Applera, Darmstadt, Germany). The permeability was evaluated on the basis of a Papp value, which was calculated using the equation published by Schwab et al. [D. Schwab et al., J. Med. Chem. 46, 1717-1725 (2003)]. A substance was classified as being actively transported if the ratio of Papp (B−A) to Papp (A−B) was >2 or <0.5.
(§3) The permeability of B to A [Papp (B−A)] is of crucial importance for toxophores that are released intracellularly. The lower this permeability, the longer is the dwell time of the substance in the cell after intracellular release and thus also the time available for an interaction with the biochemical target (here: tubulin).

Series [2] concerns human colon carcinoma cell line HT29 wt. As to the kind of experiment: Antiproliferative effect on the HT29 wt cell line (MTT assay). Type of series: cell-based. The following applies: incubation 48 h to 96 h. The method, then:
B-1. Determination of the Antiproliferative Effect on the HT29 Wt Cell Line:
A defined cell count of the human colon carcinoma cell line HT29 wt (wild type) was sown in a 96-well microtiter plate in whole medium (10% FCS-RPMI) (2500 cells/well) and incubated overnight at 37° C./5% CO2. After 18 hours, the inoculation medium was replaced by fresh medium with 10% FCS. The treatment started with addition of the respective test substance. Of the substances to be investigated, dose-effect curves were determined in a concentration range of 10^−5 M to 10^−14 M (1:10 dilution series). Incubation times of 48 h to 96 h were selected. Proliferation was detected with the help of the MTT assay (ATCC, Manassas, Va., USA, catalog no. 30-1010K). After the end of the selected incubation time, the MTT reagent was incubated with the cells for 4 h before lysis of the cells was performed overnight by adding the detergent. The dye that was formed was detected at 570 nm. The proliferation with otherwise identically treated cells but not with the test substance was defined as the 100% value. The data obtained from this test represents triple determinations, and at least two independent experiments were performed.
On the technique in general: Tetrazolium dyes change colour on reduction, which living cells bring about.

The subject of another series is Caco-2 cells. In words: Cell permeability, flux assay using Caco-2 cells. The following applies: Caco-2 flux assay, basal to apical, 2 h incubation. The class given is in vitro ADME. Here is the method: as §1, §2, §3
Setting [3] is: Homo sapiens, HT-29, HT29 wt cells.

In series [1], `CC[C@H](C)[C@@H]([C@@H](CC(=O)N1CCC[C@H]1[C@H](OC)[C@@H](C)C(=O)N[C@@H](Cc1ccccc1)CS(=O)(=O)Cc1ccccc1)OC)N(C)C(=O)[C@@H](NC(=O)[C@H](C(C)C)N(C)CCCC(=O)O)C(C)C` [Example 4] registered a Papp B→A at 2 h of 1.9 ×10⁻⁶ cm/s. Also, in series [2] (setting [3]), inhibition was half-maximal at 1.1 nM (IC50). `CC[C@H](C)[C@@H]([C@@H](CC(=O)N1CCC[C@H]1[C@H](OC)[C@@H](C)C(=O)N[C@H](Cc1ccccc1)c1nnc(-c2ccccc2)o1)OC)N(C)C(=O)[C@@H](NC(=O)[C@H](C(C)C)N(C)CCCC(=O)O)C(C)C` [Example 6, N-(3-Carboxypropyl)-N-methyl-L-valyl-N-[(3R,4S,5S)-3-methoxy-1-{(2S)-2-[(1R,2R)-1-methoxy-2-methyl-3-oxo-3-{[(1R)-2-phenyl-1-(5-phenyl-1,3,4-oxadiazol-2-yl)ethyl]amino}propyl]pyrrolidin-1-yl}-5-methyl-1-oxoheptan-4-yl]-N-methyl-L-valinamide] showed a Papp B→A at 2 h in series [1] of 4.5 ×10⁻⁶ cm/s. Also, it took 0.1 nM to reach half-maximal inhibition in series [2] (setting [3]) (IC50). As to `CC[C@H](C)[C@@H]([C@@H](CC(=O)N1CCC[C@H]1[C@H](OC)[C@@H](C)C(=O)N[C@H](/C=C\Cc1ccccc1)Cc1ccccc1)OC)N(C)C(=O)[C@@H](NC(=O)[C@H](C(C)C)N(C)CCCC(=O)O)C(C)C` [Example 1, N-(3-Carboxypropyl)-N-methyl-L-valyl-N-[(3R,4S,5S)-1-{(2S)-2-[(1R,2R)-3-{[(2S,3Z)-1,5-diphenylpent-3-en-2-yl]amino}-1-methoxy-2-methyl-3-oxopropyl]pyrrolidin-1-yl}-3-methoxy-5-methyl-1-oxoheptan-4-yl]-N-methyl-L-valinamide], in series [2] (setting [3]), 15 nM corresponded to half-maximal inhibition (IC50).

Compound `CC[C@H](C)[C@@H]([C@@H](CC(=O)N1CCC[C@H]1[C@H](OC)[C@@H](C)C(=O)N[C@H](/C=C/c1ccccc1)Cc1ccccc1)OC)N(C)C(=O)[C@@H](NC(=O)[C@H](C(C)C)N(C)CCCC(=O)O)C(C)C` [Example 3, N-(3-Carboxypropyl)-N-methyl-L-valyl-N-[(3R,4S,5S)-1-{(2S)-2-[(1R,2R)-3-{[(2S,3E)-1,4-diphenylbut-3-en-2-yl]amino}-1-methoxy-2-methyl-3-oxopropyl]pyrrolidin-1-yl}-3-methoxy-5-methyl-1-oxoheptan-4-yl]-N-methyl-L-valinamide] returned a Papp B→A at 2 h in series [1] of 17.9 ×10⁻⁶ cm/s. The midpoint of inhibition in series [2] (setting [3]), the IC50, lay at 0.3 nM. In series [1], `CC[C@H](C)[C@@H]([C@@H](CC(=O)N1CCC[C@H]1[C@H](OC)[C@@H](C)C(=O)N[C@H](/C=C\c1ccccc1)Cc1ccccc1)OC)N(C)C(=O)[C@@H](NC(=O)[C@H](C(C)C)N(C)CCCC(=O)O)C(C)C` [Example 2, N-(3-Carboxypropyl)-N-methyl-L-valyl-N-[(3R,4S,5S)-1-{(2S)-2-[(1R,2R)-3-{[(2S,3Z)-1,4-diphenylbut-3-en-2-yl]amino}-1-methoxy-2-methyl-3-oxopropyl]pyrrolidin-1-yl}-3-methoxy-5-methyl-1-oxoheptan-4-yl]-N-methyl-L-valinamide] had a Papp B→A at 2 h of 15.7 ×10⁻⁶ cm/s. Also, the concentration for half-maximal inhibition (IC50) in series [2] (setting [3]) was found to be 3.3 nM.

As to `CC[C@H](C)[C@@H]([C@@H](CC(=O)N1CCC[C@H]1[C@H](OC)[C@@H](C)C(=O)N[C@@H](Cc1ccccc1)C(=O)O)OC)N(C)C(=O)[C@@H](NC(=O)[C@@H](NC)C(C)C)C(C)C` [MMAF, monomethylauristatin F, reference compound] (H-[NMeV]V[Dil][Dolaproine]F-OH), in the series on Caco-2 cells, the “Papp (B-A)” value turned out to be 73 nm/s. The compound also yielded an IC50 in series [2] (HT29 wt cells) of 10 nM. Turning to `CC[C@H](C)[C@@H]([C@@H](CC(=O)N1CCC[C@H]1[C@H](OC)[C@@H](C)C(=O)N[C@H](C)[C@@H](O)c1ccccc1)OC)N(C)C(=O)[C@@H](NC(=O)[C@@H](NC)C(C)C)C(C)C` [MMAE, monomethylauristatin E, reference compound] (H-[NMeV]V[Dil][Dolaproine]-X1), the “Papp (B-A)” value in the series on Caco-2 cells was determined as 89 nm/s. In the case of `CC[C@H](C)[C@@H]([C@@H](CC(=O)N1CCC[C@H]1[C@H](OC)[C@@H](C)C(=O)N[C@H](/C=C/c1ccc(C(=O)O)cc1)Cc1ccccc1)OC)N(C)C(=O)[C@@H](NC(=O)[C@H](C(C)C)N(C)CCCC(=O)O)C(C)C` [Example 11], the basolateral-to-apical permeability (Papp B→A) at 2 h in series [1] came out at 0.2 ×10⁻⁶ cm/s. This compound also gave an IC50 in series [2] (setting [3]) of 4.5 nM.

In the case of `CC[C@H](C)[C@@H]([C@@H](CC(=O)N1CCC[C@H]1[C@H](OC)[C@@H](C)C(=O)NCCc1ccccc1)OC)N(C)C(=O)[C@@H](NC(=O)[C@H](C(C)C)N(C)CCCC(=O)O)C(C)C` [Example 8, N-(3-Carboxypropyl)-N-methyl-L-valyl-N-[(3R,4S,5S)-3-methoxy-1-{(2S)-2-[(1R,2R)-1-methoxy-2-methyl-3-oxo-3-[(2-phenylethyl)amino]propyl}pyrrolidin-1-yl}-5-methyl-1-oxoheptan-4-yl]-N-methyl-L-valinamide], the Papp B→A at 2 h in series [1] stood at 1 ×10⁻⁶ cm/s. In series [2] (setting [3]), half-maximal inhibition (IC50) was put at 0.5 nM. In series [1], `CC[C@H](C)[C@@H]([C@@H](CC(=O)N1CCC[C@H]1[C@H](OC)[C@@H](C)C(=O)N[C@@H](Cc1ccccc1)c1nnc(-c2ccccc2)o1)OC)N(C)C(=O)[C@@H](NC(=O)[C@H](C(C)C)N(C)CCCC(=O)O)C(C)C` [Example 5, N-(3-Carboxypropyl)-N-methyl-L-valyl-N-[(3R,4S,5S)-3-methoxy-1-{(2S)-2-[(1R,2R)-1-methoxy-2-methyl-3-oxo-3-{[(1S)-2-phenyl-1-(5-phenyl-1,3,4-oxadiazol-2-yl)ethyl]amino}propyl]pyrrolidin-1-yl}-5-methyl-1-oxoheptan-4-yl]-N-methyl-L-valinamide] came in with a Papp B→A at 2 h of 2.9 ×10⁻⁶ cm/s. In series [2] (setting [3]), this compound came in with an IC50 of 0.1 nM. In series [1], `CC[C@H](C)[C@@H]([C@@H](CC(=O)N1CCC[C@H]1[C@H](OC)[C@@H](C)C(=O)NCCc1c[nH]c2ccccc12)OC)N(C)C(=O)[C@@H](NC(=O)[C@H](C(C)C)N(C)CCCC(=O)O)C(C)C` [Example 7, N-(3-Carboxypropyl)-N-methyl-L-valyl-N-[(3R,4S,5S)-1-{(2S)-2-[(1R,2R)-3-{[2-(1H-indol-3-yl)ethyl]amino}-1-methoxy-2-methyl-3-oxopropyl]pyrrolidin-1-yl}-3-methoxy-5-methyl-1-oxoheptan-4-yl]-N-methyl-L-valinamide] registered a Papp B→A at 2 h of 1.1 ×10⁻⁶ cm/s.

In series [1], `CC[C@H](C)[C@@H]([C@@H](CC(=O)N1CCC[C@H]1[C@H](OC)[C@@H](C)C(=O)N[C@H](C)[C@@H](O)c1ccccc1)OC)N(C)C(=O)[C@@H](NC(=O)[C@H](C(C)C)N(C)CCCC(=O)O)C(C)C` [Example 9, N-(3-Carboxypropyl)-N-methyl-L-valyl-N-[(3R,4S,5S)-1-{(2S)-2-[(1R,2R)-3-{[(1S,2R)-1-hydroxy-1-phenylpropan-2-yl]amino}-1-methoxy-2-methyl-3-oxopropyl]pyrrolidin-1-yl}-3-methoxy-5-methyl-1-oxoheptan-4-yl]-N-methyl-L-valinamide] came in with a Papp B→A at 2 h of 0.45 ×10⁻⁶ cm/s. Also, inhibition in series [2] (setting [3]) was half-maximal at 6 nM (IC50).
